Earlier results on two compounds are cited in PMC6957711 (Journal of Alzheimer's Disease, 2020).

Each structure is given as a SMILES string.

The conditions of series [1]: Phase III clinical studies.
In a further series the test system is tau. The settings on record: in vitro.

Consider `CN(C)c1ccc2c(c1)Sc1cc(N(C)C)ccc1N2.CS(=O)(=O)O.CS(=O)(=O)O` [LMTX, Leuco-Methylthioninium Bis(Hydromethanesulphonate)], for which the clinical endpoints result in series [1] was “failed to meet its clinical endpoints”.

In the case of `CN(C)c1ccc2nc3ccc(=[N+](C)C)cc-3sc2c1` [methylene blue], in the series with tau, the tau fibril formation result was “inhibits” and the tau oligomer formation result was “accelerates”.
